Common to all, as to assay type: organism-based
Common to all, as to details: in vivo

The test system of data set [1] is Phaseolus vulgaris. As to the kind of experiment: Phytotoxicity against Phaseolus vulgaris (pinto beans)s assessed as reduction in shoot dry weight applied pre-emergence relative to control. On the set-up: scale not given: the % may be the effect or the level left.
In data set [2] the test system is Phaseolus vulgaris. Nature of the data set: Phytotoxicity against Phaseolus vulgaris (otebo beans) assessed as reduction in shoot dry weight applied pre-emergence relative to control. On the set-up: scale not given: the % may be the effect or the level left.
The test system of data set [3] is Phaseolus vulgaris. As to the kind of experiment: Phytotoxicity against Phaseolus vulgaris (otebo beans) assessed as reduction in plant height applied pre-emergence relative to control. Further details: scale not given: the % may be the effect or the level left.
The test system of data set [4] is Phaseolus vulgaris. As to the kind of experiment: Phytotoxicity against yellow eye bean assessed as reduction in plant height applied pre-emergence relative to control. Further details: scale not given: the % may be the effect or the level left.
Data set [5] concerns Phaseolus vulgaris. As to the kind of experiment: Phytotoxicity against Phaseolus vulgaris (white beans) assessed as reduction in shoot dry weight applied pre-emergence relative to control. Further details: scale not given: the % may be the effect or the level left.
For data set [6], the system named is Phaseolus vulgaris. Nature of the data set: Phytotoxicity against Phaseolus vulgaris (cranberry beans) assessed as crop injury.
The test system of data set [7] is Phaseolus vulgaris. Nature of the data set: Phytotoxicity against Phaseolus vulgaris (black beans) assessed as reduction in plant height applied pre-emergence relative to control. Further details: scale not given: the % may be the effect or the level left.
Data set [8] deals with Phaseolus vulgaris. As to the kind of experiment: Phytotoxicity against Phaseolus vulgaris (white beans) assessed as reduction in plant height applied pre-emergence relative to control. Further details: scale not given: the % may be the effect or the level left.
For data set [9], the system named is Phaseolus vulgaris. As to the kind of experiment: Phytotoxicity against Phaseolus vulgaris (black beans) assessed as reduction in shoot dry weight applied pre-emergence relative to control. On the set-up: scale not given: the % may be the effect or the level left.
In data set [10] the test system is Phaseolus vulgaris. As to the kind of experiment: Phytotoxicity against Phaseolus vulgaris (pinto beans) assessed as reduction in plant height applied pre-emergence relative to control. On the set-up: scale not given: the % may be the effect or the level left.
For data set [11], the system named is Phaseolus vulgaris. As to the kind of experiment: Phytotoxicity against Phaseolus vulgaris (white beans) assessed as crop injury.
Data set [12] deals with Phaseolus vulgaris. Nature of the data set: Phytotoxicity against yellow eye bean assessed as reduction in shoot dry weight applied pre-emergence relative to control. On the set-up: scale not given: the % may be the effect or the level left.
Data set [13] has as its system Phaseolus vulgaris. Nature of the data set: Phytotoxicity against Phaseolus vulgaris (black beans) assessed as reduction in shoot dry weight relative to control. Further details: scale not given: the % may be the effect or the level left.
The test system of data set [14] is Phaseolus vulgaris. Nature of the data set: Phytotoxicity against Phaseolus vulgaris (kidney bean) assessed as crop injury.
Data set [15] has as its system Phaseolus vulgaris. Nature of the data set: Phytotoxicity against Phaseolus vulgaris (pink beans) assessed as crop injury.

6 molecules from ChEMBL document CHEMBL3044870, “Effect of clomazone on various market classes of dry beans” (Crop Prot, 2007) can be followed below.

With `CON(C)C(=O)Nc1ccc(Cl)c(Cl)c1` [LINURON], the Activity is 26% in the data set on Phaseolus vulgaris [1]; 26% in the data set on Phaseolus vulgaris [2]; 24% in the data set on Phaseolus vulgaris [3]; 24% with Phaseolus vulgaris [4]; 26% in the data set with Phaseolus vulgaris [5]; 4% with Phaseolus vulgaris [6]. Moreover, the Activity was 24% with Phaseolus vulgaris [7]; 24% with Phaseolus vulgaris [8]; 26% in the data set with Phaseolus vulgaris [9]; 24% with Phaseolus vulgaris [10]; 49% in the data set on Phaseolus vulgaris [11]; 26% with Phaseolus vulgaris [12].

As to `C#CCN1C(=O)COc2cc(F)c(N3C(=O)C4=C(CCCC4)C3=O)cc21` [FLUMIOXAZIN], the Activity worked out at 4% in the data set on Phaseolus vulgaris [6], 23% in the data set on Phaseolus vulgaris [7], 28% in the data set on Phaseolus vulgaris [8] and 17% with Phaseolus vulgaris [11].

`CCc1cccc(C)c1N(C(=O)CCl)[C@@H](C)COC` [S-METOLACHLOR]: the Activity in the data set with Phaseolus vulgaris [13] amounted to 16%.

As for `CCc1cccc(CC)c1N(COC)C(=O)CCl` [ALACHLOR], the Activity with Phaseolus vulgaris [14] is listed as 0.5%; in the data set with Phaseolus vulgaris [11] it was 6%.

For `CS(=O)(=O)NC(=O)c1cc(Oc2ccc(C(F)(F)F)cc2Cl)ccc1[N+](=O)[O-]` [FOMESAFEN], the Activity in the data set on Phaseolus vulgaris [14] is given as 1%; with Phaseolus vulgaris [15], 5%.

Regarding `CCc1cnc(C2=NC(C)(C(C)C)C(=O)N2)c(C(=O)O)c1` (stereo not given) [IMAZETHAPYR], the Activity in the data set on Phaseolus vulgaris [14] stood at 2%; in the data set on Phaseolus vulgaris [7], 40%; in the data set with Phaseolus vulgaris [8] it was 40%; in the data set on Phaseolus vulgaris [11] it was 11%.
